Source: ChEMBL document CHEMBL1126345, “Synthesis of biological evaluation of 4-deshydroxy-4-methyl etoposide and teniposide analogs” (Bioorg Med Chem Lett, 1992)
Values after ≈ are worked out from the molar mass of the structure shown. Active and inactive are the calls of the source. The calls are words filed in the database; no cut-off is given here.

How the values were obtained:
[1] = target: DNA topoisomerase II (Homo sapiens) (UniProt P11388+Q02880); assay: Double strand DNA breakage reflecting stabilization of DNA topoisomerase II intermediate by the compound expressed in terms of ng of DNA/unit of enzyme/mM of drug
P388 [2] = assay: In vivo antitumor activity against Murine P388 murine leukemia cell line up to a conc of 100 mg/kg; IA - Totally inactive; type: functional, organism-based; set-up: dose 100 mg/kg; settings: Mus musculus
HCT cell line = assay: In vitro inhibition of compound against HCT cell lines was determined after 72 hr of administration of the dose; type: functional, cell-based; settings: Homo sapiens
HCT-116 = assay: In vitro inhibition of compound against HCT/VP35 cell lines was determined after 72 hr of administration of the dose; type: functional, cell-based; settings: Homo sapiens, HCT-116, 72 h
P388 [3] = assay: In vivo antitumor activity against Murine P388 murine leukemia cell line up to a conc of 100 mg/kg; A - Active; type: functional, organism-based; set-up: dose 100 mg/kg; settings: Mus musculus
[4] = Resistance ratio was determined as the ratio of resistance to cytotoxicity against human colon tumor (HCT116) to that of (HCT/VP35) cells grown in culture; type: functional

DSB [1]	Structure (SMILES)	Activity (P388 [2])	other results
26	COc1cc([C@@H]2c3cc4c(cc3[C@@H](O[C@@H]3O[C@@H]5CO[C@@H](C)O[C@H]5[C@H](O)[C@H]3O)[C@H]3COC(=O)[C@H]23)OCO4)cc(OC)c1C		IC50 (HCT cell line): 5.7 µg/mL (≈ 9.72 µM); IC50 (HCT-116): 5.7 µg/mL (≈ 9.72 µM); Activity (P388 [3]): Active
305	COc1cc([C@@H]2c3cc4c(cc3[C@@H](O[C@@H]3O[C@@H]5CO[C@@H](C)O[C@H]5[C@H](O)[C@H]3O)[C@H]3COC(=O)[C@H]23)OCO4)cc(OC)c1O		
27	COc1cc(OC)cc([C@@H]2c3cc4c(cc3[C@@H](O[C@@H]3O[C@@H]5CO[C@@H](C)O[C@H]5[C@H](O)[C@H]3O)[C@H]3COC(=O)[C@H]23)OCO4)c1		Resistance ratio [4]: 0.5

More lines, now with the values behind:

Structure (SMILES)	DSB [1]	Activity (P388 [2])	other results
COc1cc([C@@H]2c3cc4c(cc3[C@@H](O[C@@H]3O[C@@H]5CO[C@@H](c6cccs6)O[C@H]5[C@H](O)[C@H]3O)[C@H]3COC(=O)[C@H]23)OCO4)cc(OC)c1O	346		
COc1cc([C@@H]2c3cc4c(cc3[C@@H](O[C@@H]3O[C@@H]5CO[C@@H](c6cccs6)O[C@H]5[C@H](O)[C@H]3O)[C@H]3COC(=O)[C@H]23)OCO4)cc(OC)c1C	49	inactive	
C=CCc1c(OC)cc([C@@H]2c3cc4c(cc3[C@@H](O[C@@H]3O[C@@H]5CO[C@@H](c6cccs6)O[C@H]5[C@H](O)[C@H]3O)[C@H]3COC(=O)[C@H]23)OCO4)cc1OC	42		
C=Cc1c(OC)cc([C@@H]2c3cc4c(cc3[C@@H](O[C@@H]3O[C@@H]5CO[C@@H](C)O[C@H]5[C@H](O)[C@H]3O)[C@H]3COC(=O)[C@H]23)OCO4)cc1OC	17	inactive	
C=CCc1c(OC)cc([C@@H]2c3cc4c(cc3[C@@H](O[C@@H]3O[C@@H]5CO[C@@H](C)O[C@H]5[C@H](O)[C@H]3O)[C@H]3COC(=O)[C@H]23)OCO4)cc1OC	17	inactive	
